Common to all, as to type: functional
Conditions in all cases: read-out: ED50 (the source's name)

One test relates to MCF7. Put plainly: Cytotoxicity against human MCF7 cells.
A further test concerns Malme-3M. Put plainly: Cytotoxicity against human MALME-3M cells.
A further test deals with A549. Put plainly: Cytotoxicity against human A549 cells.
Another test concerns SK-MEL-5. Put plainly: Cytotoxicity against human SK-MEL-5 cells.
In a further test the test system is HT-29. The experiment in a line: Cytotoxicity against human HT-29 cells.

In brackets after ≈: the same amount, converted by molar mass.

`COC(=O)/C=C/C(=O)CC(O)COC(=O)c1ccccc1` (stereo unspecified): the EC50 was 1.92 µg/mL (≈ 6.57 µM) with MCF7; 1.1 µg/mL (≈ 3.76 µM) in the test with Malme-3M; 3.28 µg/mL (≈ 11.2 µM) in the test on A549; 1.04 µg/mL (≈ 3.56 µM) in the test with SK-MEL-5; 0.253 µg/mL (≈ 0.866 µM) in the test on HT-29.
Taken in the same sequence, the figures for `O=C1C=C/C(=C/C(O)COC(=O)c2ccccc2)O1` (stereo unspecified) [MELODORINOL] were 1.99 µg/mL (≈ 7.65 µM), 3.32 µg/mL (≈ 12.8 µM), 5.89 µg/mL (≈ 22.6 µM), 3.75 µg/mL (≈ 14.4 µM) and 2.87 µg/mL (≈ 11 µM).
Taken in the same sequence, the figures for `CC(=O)OC(/C=C1/C=CC(=O)O1)COC(=O)c1ccccc1` (stereo unspecified) [ACETYLMELODORINOL] were 1.96 µg/mL (≈ 6.48 µM), 2.74 µg/mL (≈ 9.06 µM), 2.89 µg/mL (≈ 9.56 µM), 4.21 µg/mL (≈ 13.9 µM) and 2.38 µg/mL (≈ 7.87 µM).
For `CCOC(=O)/C=C\C(=O)/C=C/COC(=O)c1ccccc1` [HOMOISOMELODIENONE], the EC50 is 4.26 µg/mL (≈ 14.8 µM) with MCF7, 6.7 µg/mL (≈ 23.2 µM) with A549 and 36.3 µg/mL (≈ 126 µM) in the test with HT-29.
Take `CCOC(=O)/C=C/C(=O)/C=C/COC(=O)c1ccccc1` [HOMOMELODIENONE]: the figures for the EC50 with MCF7, with A549 and in the test on HT-29 were 25.6 µg/mL (≈ 88.8 µM), 36.9 µg/mL (≈ 128 µM) and 37.9 µg/mL (≈ 131 µM), respectively.

These data come from ChEMBL document CHEMBL1158951, “Additional bioactive heptenes from Melodorum fruticosum” (1991).
